In paper PMC10520196 (Clinical Pharmacokinetics, 2023):

Columns and labels:
[1] = Observed C24 in P1093; type: in vivo; details: human, plasma, oral, Geometric mean C24, P1093, ≥ 6 to < 10 kg
[2] = Final pediatric population PK model; type: in vivo, human
[3] = healthy adult volunteers, same dose; cited from earlier work
[4] = maturation half-time, fixed; based on paracetamol; ref Anderson et al.; cited from earlier work
[5] = final PopPK model, reference 70-kg subject

## C[C@@H]1CCO[C@H]2Cn3cc(C(=O)NCc4ccc(F)cc4F)c(=O)c(O)c3C(=O)N12 [dolutegravir, Dolutegravir]
[1]; 10 mg, < 6 months of age, DT 10 mg QD
  concentration at 24 h: 1820 ng/mL
[1]; 10 mg, ≥ 6 months of age, DT 10 mg QD
  concentration at 24 h: 735 ng/mL
[1]; 15 mg, ≥ 6 months of age, DT 15 mg QD
  concentration at 24 h: 908 ng/mL
[2]; calculated as 0.854 × 2.04
  KA (DT and granules): KA (DT and granules) = 1.74 (95% CI 1.20–2.28), calculated as 0.854 × 2.04 (95% CI 0.854 × 1.41–0.854 × 2.67)
[2]; effect of weight on V/F (exponent)
  V/F~WT: 0.556
[2]; final PopPK model, factor on KA of FCT
  KA~DT and granules: 2.04
[2]; final PopPK model, film-coated tablet
  KA, FCT: 0.854 h^–1
[2]; [5]
  CL/F: 1.03 L/h
  V/F: 13.6 L
[2]; inter-individual variability of CL/F, variance
  ω^2CL point estimate: 0.0863
[2]; inter-individual variability of KA, variance
  ω^2KA point estimate: 0.762
[2]; inter-individual variability of V/F, variance
  ω^2V point estimate: 0.0698
[2]; inter-occasion variability of KA, variance
  ω^2IOV,KA point estimate: 0.610
[2]; relative bioavailability
  F, fasted DT/granules: 1.53
  F, without regard to food, FCT: 1.10
[2]; relative bioavailability, reference, fixed
  F, fasted FCT: 1.00
[3]
  Relative bioavailability of DT vs granules: comparable
[4]
  TM50: 52.2 FIX week
